Data reported in patent US4558066A, “Treatment and prevention of ocular hypertension” (priority 1984, dated 1985).
Structures can show the parent of a compound that is named as a salt.

Assays:
[1] = topical; PDR; cited from earlier work
[2] = system: eye; parameters: species or system mongrel dogs; conditions: dog, in vivo
[3] = system: intraocular pressure; experiment: Reduction of intraocular pressure in rabbits (pneuma-tonometer); type: in vivo, normal albino white New Zealand rabbits; conditions: rabbit
Method: Two groups of normal albino white New Zealand rabbits were used for this study.
Experimental group: 8 animals
At time 0, intraocular pressure of both eyes of each animal in control and experimental groups was determined.
All animals received the treatment either with saline (control group) or the tested compound (experimental group) immediately after 0 hour intraocular pressure reading. Control group received 50 μl of vehicle in both eyes. Experimental animals received 50 μl of vehicle in the left eyes and 50 μl of 1% solution of tested compound in the right eyes.
Intraocular pressure was measured at 30 minutes, 1, 2, and 4 hours.
The effects of tested drug on intraocular pressure of the rabbit was determined using a Digilab Model 30D pneuma-tonometer. Initial IOP readings were obtained in all animals after the administration of 50 μl of 0.5% Opthaine (proparacaine hydrochloride). A group of 4 rabbits served as controls and were treated with 50 μl of saline in both eyes. Eight additional rabbits received 50 μl of test drug in the right eye, and 50 μl of drug vehicle was administered in the contralateral left eye. IOP readings were made 30 minutes, 1 hours, 2 hours, and 4 hours after drug administration.
This procedure permitted the comparison of drug treated eye with the contralateral vehicle treated eye, and also with saline treated eye. For purposes of statistical analysis comparisons were made between the drug treated IOP values and vehicle treated contralateral eyes and also the saline treated IOP values.

[4] = system: isoproterenol responses; parameters: species or system mongrel dogs; conditions: dog, in vivo
Method: (§1) In the present studies, the cardiovascular and intraocular pressure effects of Timoptic (Timolol) a Merck β-blocker marketed for treatment of glaucoma, and ±2-[(3,4-methylenedioxy)phenethyl]-5-[(3-carboxamido-4-hydroxy)-α-hydroxybenzyl]pyrrolidine were evaluated in anesthetized dogs to determine if the compounds exert systemic effects after ocular administration.
(§2) Mongrel dogs were anesthetized with sodium pentobarbital (36 mg/kg, i.v.). The trachea was intubated and the dog respired with room air if necessary (20 cc/kg, 16x/min). A femoral vein was cannulated for injection of drugs and a femoral artery for measurement of systolic blood pressure. Heart rate was recorded by a cardiotachometer triggered by the R-wave of a limb lead II ECG. Intraocular pressure measurements were made with a Digilab model 30-D Pneuma-Tonometer.
(§3) Timolol and ±2-[(3,4-methylenedioxy)phenethyl]-5-[(3-carboxamido-4-hydroxy)-α-hydroxybenzyl]pyrrolidine were dissolved in distilled water. Isoproterenol and norepinephrine were dissolved in normal saline.
(§4) Isoproterenol was administered i.v. at half-log interval doses from 0.0158 μg/kg to 0.5 μg/kg.

[5] = parameters: species or system mongrel dogs; conditions: dog, in vivo
Method: as §1, §2, §3, §4

[6] = system: norepinephrine responses; parameters: species or system mongrel dogs; conditions: dog, in vivo
Method: as §1, §2, §3, §4

[7] = system: intraocular pressure; experiment: Intraocular pressure in anesthetized dogs after ocular administration; type: in vivo, mongrel dogs; conditions: anesthetized dog
Method: as §1, §2, §3, §4

[8] = cited from earlier work
[9] = administered to the eye at 0.5, 1 and 2%

**Q.** For `CC(C)(C)NC[C@H](O)COc1nsnc1N1CCOCC1` [timolol maleate], which “Systemic side effects when applied topically” value [1] is on record?
**A.** Its value is “can cause bronchospastic disease, bradyarrhythmia, cardiogenic shock, cardiac failure, etc”.

**Q.** For `NC(=O)c1cc(C(O)C2CCC(CCc3ccc4c(c3)OCO4)N2)ccc1O` (racemic) [±2-[(3,4-methylenedioxy)phenethyl]-5-[(3-carboxamido-4-hydroxy)-α-hydroxybenzyl]pyrrolidine], which Eye irritation [2] is on record?
**A.** Its Eye irritation is “no irritation to the eye”.

**Q.** And the “Intraocular pressure, Experimental O.D. (right, treated eye)” value ([3]; 0 time reading before dosing of 50 μl of 1% solution (baseline), control O.D. 18.8, contralateral vehicle eye 18)?
**A.** Its value is 17.6 mmHg.

**Q.** What about the “Effect on intraocular pressure in right (treated) eyes” value ([3]; 1% solution) of the same compound?
**A.** The value was “decreased significantly intraocular pressure”.

**Q.** What about the “Intraocular pressure, Experimental O.D. (right, treated eye)” value ([3]; 50 μl of 1% solution, 30 min, control O.D. 18.3, contralateral vehicle eye 18.1) of the same compound?
**A.** Its value is 18.9 mmHg.

**Q.** And the “Intraocular pressure, Experimental O.D. (right, treated eye)” value ([3]; 50 μl of 1% solution, 1 hour, control O.D. 19.5, contralateral vehicle eye 19.8)?
**A.** Its value is 17.1 mmHg.

**Q.** And the “Intraocular pressure, Experimental O.D. (right, treated eye)” value ([3]; 50 μl of 1% solution, 2 hours, control O.D. 19.8, contralateral vehicle eye 17.3)?
**A.** Its value is 14.4 mmHg.

**Q.** What about the “Intraocular pressure, Experimental O.D. (right, treated eye)” value ([3]; 50 μl of 1% solution, 4 hours, control O.D. 19.8, contralateral vehicle eye 18.8) of the same compound?
**A.** Its value is 15.5 mmHg.

**Q.** And the “Dose relation of inhibition of isoproterenol responses” value [4]?
**A.** Its value is “not dose related”.

**Q.** What about the “Inhibition of isoproterenol responses” value [4] of the same compound?
**A.** Its value is “some inhibition”.

**Q.** What about the “Baseline blood pressure compared with control dogs” value [5] of the same compound?
**A.** Its value is “differed little from control dogs”.

**Q.** And the “Baseline heart rate compared with control dogs” value [5]?
**A.** Its value is “differed little from control dogs”.

**Q.** What about the “Systemic effect (conclusion)” value [5] of the same compound?
**A.** Its value is “modest, if any systemic effect”.

**Q.** What about the “Dose relation of inhibition of norepinephrine responses” value [6] of the same compound?
**A.** Its value is “not dose related”.

**Q.** What about the “Inhibition of norepinephrine responses” value [6] of the same compound?
**A.** Its value is “some inhibition”.

**Q.** And the “Decrease of IOP relative to Timolol” value [7, 9]?
**A.** The value was “to a lesser extent than Timolol”.

**Q.** And the “Effect on intraocular pressure” value [7, 9]?
**A.** The value was “decreased IOP”.

**Q.** What about the “Effect on intraocular pressure (conclusion)” value ([7]; at the doses tested) of the same compound?
**A.** Its value is “lowered intraocular pressure”.

**Q.** Which “Inhibition of i.v. (systemic) isoproterenol challenges” value [4] does the source give for `CC(C)(C)NC[C@H](O)COc1nsnc1N1CCOCC1` [Timolol] here?
**A.** Its value is “markedly inhibited”.

**Q.** And the “Systemic absorption following ocular administration (indicated by inhibition of isoproterenol challenges)” value [4]?
**A.** Its value is “readily absorbed systemically following ocular administration”.

**Q.** And the “Effect on baseline blood pressure” value [5]?
**A.** The value was “marked decreases”.

**Q.** And the “Effect on baseline heart rate” value [5]?
**A.** Its value is “marked decreases”.

**Q.** And the “Time post-dose to nadir of blood pressure” value [5]?
**A.** Its value is ≤ 90 min.

**Q.** What about the “Time post-dose to nadir of heart rate” value [5] of the same compound?
**A.** Its value is ≤ 90 min.

**Q.** What about the “Effect on intraocular pressure” value ([7]; administered to the eye at 0.5%) of the same compound?
**A.** Its value is “significant decreases in intraocular pressure”.

**Q.** What about the “Effect on cardiac failure” value ([8]; congestive heart failure patients, ocular application) of the same compound?
**A.** The value was “intensify cardiac failure in congestive heart failure patients”.

**Q.** And the “Systemic absorption after ocular application” value ([8]; human, in vivo)?
**A.** Its value is “absorbed systemically after ocular application”.

**Q.** What about the Effect on bronchospasm ([8]; patients suffering from brochospastic disorders, ocular application) of the same compound?
**A.** Its Effect on bronchospasm is “brochospasm in patients suffering from brochospastic disorders”.
